Measured values reported in PMC10686834, “Targeting myeloid chemotaxis to reverse prostate cancer therapy resistance” (Nature, 2023).
Where two headings read alike, the source gives them in different places.

Key:
CYP2B6 = test system: CYP2B6; design: method as in AZD5069 Investigator Brochure (IB); conditions: at concentrations of up to 100 μmol/L; ref AZD5069 Investigator Brochure (IB); cited from earlier work
[1] = test system: AR activity and AR-V7 signatures; test: RNA profiling (HTG EdgeSeq) of paired FFPE tumour biopsies: AR activity and AR-V7 signatures; assay type: in vivo, human; conditions: paired biopsies with decreased myeloid cell density (seven pairs)
Method: RNA profiling of FFPE tumour biopsies collected before and after starting AZD5069 was carried out by HTG EdgeSeq (HTG Molecular Diagnostics) using the HTG human transcriptome panel containing 19,616 nuclease protection probes (NPPs), including 19,398 gene target-specific 50-nucleotide probes, 100 negative control probes, 92 probes for RNA controls established by the External RNA Control Consortium, 22 probes that measure gDNA and 4 positive control probes. The assay was carried out with a minimum of 11 mm^2 of FFPE tumour micro-dissected sections. The sections were lysed according to the manufacturer’s instructions, and added to a 96-well plate on the HTG EdgeSeq Processor (HTG Molecular Diagnostics) on which a quantitative nuclease protection assay was carried out. The addition of DNA nuclease protection probes (NPPs) was automated and they were allowed to hybridize for 16 hours to the target mRNAs. The excess non-hybridized DNA probes and non-hybridized mRNA were removed by S1 digestion leaving only NPPs hybridized to mRNA. […] After clean-up and quantification by quantitative PCR using the kit KAPA Library Quantification Kit Illumina platforms, the libraries were pooled and sequenced on the NextSeq 500 using a High Throughput 75-cycle v.2.5 kit (Illumina). […] Data were analysed using the HTG EdgeSeq Reveal analysis software. […]

P-glycoprotein (P-gp) = test system: P-glycoprotein (P-gp); design: method as in AZD5069 Investigator Brochure (IB); conditions: at concentrations of up to 100 μmol/L; ref AZD5069 Investigator Brochure (IB); cited from earlier work
[2] = test system: patients with persistent uncontrolled asthma; design: method as in AZD5069 Investigator Brochure (IB); conditions: asthma study NCT01704495, 161 patients receiving 45 mg BD, 6-month safety analysis set; ref AZD5069 Investigator Brochure (IB); cited from earlier work
[3] = test system: patients with advanced solid tumours or metastatic pancreatic ductal adenocarcinoma; conditions: ref AZD5069 IB (07 July 2019), cited from earlier work
CYP2C8 = test system: CYP2C8; design: method as in AZD5069 Investigator Brochure (IB); conditions: ref AZD5069 Investigator Brochure (IB); cited from earlier work
[4] = test system: LPS induced pulmonary neutrophilia; design: method as in AZD5069 Investigator Brochure (IB); conditions: rat; ref AZD5069 Investigator Brochure (IB); cited from earlier work
[5] = Pharmacokinetics of AZD5069 in plasma, non-compartmental analysis (AUClast, Cmax); assay type: in vivo, human
Method: Specific pharmacokinetic collection time points are listed in the study protocol. Pharmacokinetic parameters were calculated using non-compartmental analysis (Phoenix v.8.1, Certara). Fresh tumour needle core biopsies from matched disease sites (lymph node, bone and soft tissue) were collected at baseline (within 1 week of treatment commencement) and approximately 2 weeks after starting AZD5069 in patients when this was deemed safe and feasible. Tumour biopsies were obtained from 18 patients under computerized tomography or ultrasound guidance by an experienced interventional radiologist (N.T.). […] One patient had only a baseline tumour biopsy. Two patients underwent on-treatment biopsies after 4 weeks. Immediately after biopsy, tumour samples were immersed in 10% neutral-buffered formalin for 24 hours. Samples were processed through paraffin wax for histologic examination. Three 3 μm sections of formalin-fixed paraffin-embedded (FFPE) tumour biopsy were stained with haematoxylin and eosin to confirm the presence of tumour by a pathologist (B.G.). Tumour samples with insufficient tumour content or significant crushed artefact were excluded from analyses (B.G.). Baseline FFPE samples were analysed by IHC, and pre- and post-treatment FFPE biopsies were analysed by IF and targeted RNA profiling using HTG EdgeSeq. All samples that failed initial analyses by IF were restained at least once. A list of tumour samples and their methods of analyses are detailed in Supplementary Table 4.

rat = conditions: in vivo; cited from earlier work
[6] = design: method as in AZD5069 Investigator Brochure (IB); conditions: ref AZD5069 Investigator Brochure (IB), cited from earlier work
CYP2C19 = test system: CYP2C19; design: method as in AZD5069 Investigator Brochure (IB); conditions: at concentrations of up to 100 μmol/L; ref AZD5069 Investigator Brochure (IB); cited from earlier work
[7] = 109 patients in two oncology studies

## C[C@@H](Oc1cc(NS(=O)(=O)N2CCC2)nc(SCc2cccc(F)c2F)n1)[C@@H](O)CO [AZD5069]
CYP2B6
  inhibition of CYP2B6: not an inhibitor
[1]
  AR activity and AR-V7 mRNA signatures in tumour biopsies: downregulation of AR activity and AR-V7 signatures
P-glycoprotein (P-gp)
  inhibition of P-glycoprotein (P-gp): not an inhibitor
[2]
  patients who discontinued the drug due to neutrophil counts 1x10^9/L: 4
[3]; 109 patients in two oncology studies (four patients)
  causally-related AEs that led to treatment discontinuation: 3.7%
[3]; [7]
  causally-related AEs of CTCAE ≥Grade 3: fatigue: 4.6%
  causally-related AEs of CTCAE ≥Grade 3: neutropenia: 11.0%
  causally-related AEs of CTCAE ≥Grade 3: neutrophil count decreased: 4.6%
  causally-related AEs: decreased appetite: 20.2%
  causally-related AEs: diarrhoea: 10.1%
  causally-related AEs: fatigue: 22.9%
  causally-related AEs: nausea: 11.9%
  causally-related AEs: neutropenia: 15.6%
  causally-related AEs: neutrophil count decreased: 11.0%
  causally-related SAEs: 9.2%
  fatal AE considered treatment-related: no fatal AE
  most common AEs: decreased appetite: 35.8%
  most common AEs: fatigue: 38.5%
  most common AEs: nausea: 28.4%
  patients with adverse events considered related to study treatment: 73.4%
[3]; Study NCT02499328, 40 mg BD dose (4/64)
  neutrophil count decreased: 6.3%
[3]; Study NCT02499328, 80 mg BD dose (6/25)
  neutrophil count decreased: 24%
CYP2C8
  IC50: ~100 µM
[4]
  effect on LPS induced pulmonary neutrophilia: dose dependent inhibition
[5]; AZD5069 monotherapy day 15, 40 to 160 mg BD
  AZD5069 exposure (AUClast and Cmax) at steady state versus dose: increased in a dose-dependent manner
[5]; combination (28 days) versus monotherapy (14 days), particularly at the higher dose levels
  AZD5069 exposure (AUClast) with enzalutamide: decreased after the addition of enzalutamide
[5]; partial responder at AZD5069 80 mg BD
  drug exposure (AUClast and Cmax): comparable to those of patients treated at 160 mg BD
rat
  tolerated single doses: up to 600 mg/kg
[6]; fasting conditions
  tmax: ~ 2 hours
[6]; plasma
  initial half-life: 4 h
  terminal half-life: 11 h
[6]
  apparent volume of distribution: ~ 53 L
  food effect: reduces the peak concentration but total exposure (AUC) is unchanged
  fraction of the drug renally excreted: Less than 10%
  total plasma clearance: ~ 8 L/h
[6]; single and repeated BD dosing
  systemic exposure versus dose: proportional to the dose
CYP2C19
  inhibition of CYP2C19: not an inhibitor
